Experimental data published in US10761045B2, “Sensor, sensor system, method of manufacturing sensor, and method of measuring concentration of target substance” (PHC Holdings Corporation, priority 2010, dated 2020).

Experiments:
[1] = Storage stability of reagent solution (response current of sensors made with stored vs fresh reagent solution); format: physicochemical; conditions: additive in reagent solution C composition (PQSA, FAD-GDH); additive conc. 1.0-5.0 mM
Source text: A sensor having the configuration illustrated in FIG. 1 was manufactured. The detailed procedure will now be described. First, by sputtering palladium, 8 nm-thick conductive layer 3 was deposited on substrate 2 which was 30 mm in length, 7 mm in width and 0.2 mm in thickness and which contained polyethylene terephthalate as its main component. Thereafter, a 0.1 mm-width non-conductive track was formed by laser ablation, to form electrodes 31 to 33. Electrode 31 was designed to function as a working electrode, electrode 32 as a counter electrode, and electrode 33 as a sensing electrode.
Using a microsyringe, 1.2 μL of each reagent solution was applied to form reagent layer 4 in a shape of 2.2 mm diameter-circular. After formation of reagent layer 4, spacer 5 (0.145 mm thick) having a cut-out with a length of 3.4 mm a width of 1.2 mm and cover 6 were sequentially attached to the substrate having the electrodes formed thereon. In this way a sensor was manufactured that has a capillary having a volume of 0.6 μL. […]
Response current values of each sensor were measured using a series of glucose solutions of known concentrations.
By adding as an additive imidazole, histamine, histidine, 2-aminoimidazole, 4,5-bis(hydroxymethyl)imidazole, 1,2,4-triazole, 3-amino-1,2,4-triazole, 4-amino-1,2,4-triazole, 3,5-diamino-1,2,4-triazole, 2-methylimidazole, or 1,2-dimethylimidazole, reagent solutions were prepared that contain the same composition as reagent solution C except the type and concentration of the additive. The concentrations of the additives are as indicated in Tables below and the accompanying drawings.
Further, sensors were manufactured using the same reagent solutions stored at 25° C. and 5% humidity for 24 hours after preparation. […]

[2] = Cyclic voltammetry of reagent solutions A and B (PQSA, FAD-GDH, with or without imidazole); format: physicochemical
Description: Reagent solutions A and B having the following compositions were prepared.
Additive: Imidazole (structural formula is illustrated below) (7.5 mM)
Electron acceptor: PQSA (7.5 mM)
Enzyme: FAD dependent-glucose dehydrogenase (FAD-GDH) 3.5 MU/L (liter)
Buffer solution: 100 mM sodium phosphate buffer solution (pH 7.0)
Reagent solution B has the same composition as reagent solution A except the absence of imidazole.
First, by sputtering palladium, 8 nm-thick conductive layer 3 was deposited on substrate 2 which was 30 mm in length, 7 mm in width and 0.2 mm in thickness and which contained polyethylene terephthalate as its main component. Thereafter, a 0.1 mm-width non-conductive track was formed by laser ablation, to form electrodes 31 to 33. Electrode 31 corresponds to a working electrode, and electrode 32 to a counter electrode. Spacer 5 (0.145 mm thick) having a cut-out with a length of 3.4 mm and a width of 1.2 mm and cover 6 were sequentially attached to the substrate having the electrodes formed thereon. In this way a sensor electrode was manufactured that has capillary 51 with a volume of 0.6 μL.
Cyclic voltammetry was performed for the resultant reagent solution using the aforementioned sensor electrode. As a reference electrode, a silver/silver chloride (saturated potassium chloride) electrode (hereinafter “Ag|AgCl”) was used. […]

[3] = Stability test (exposure test) of sensor at 30° C., 80% humidity; conditions: additive in reagent layer; additive conc. 1.0-5.0 mM
Description: Sensors were manufactured in the same manner as described in section [1-5] using the reagent solutions prepared above. The sensors manufactured were exposed to an environment of high temperature and humidity (30° C., 80% relative humidity) for 24 hours. Response current values of the pre- and post-exposed sensors were measured for a series of glucose solutions of known concentrations.
Sensors were manufactured using fresh reagent solutions having the same compositions as described above. The sensors were subjected to an exposure experiment where they were allowed to stand for 24 hours at 30° C. and 80% humidity. Response current values of non-exposed sensors (i.e., sensors stored under the ambient condition (25° C., 5% humidity) for 24 hours) and the exposed sensors were measured for a series of glucose solutions of known concentrations.

Imidazole
Reagent solution stability % change in response current value between before and after 24 hours storage at 25° C. [1]: −1% | shift of the peak oxidation potential of PQSA after storage of reagent solution ([2]; 21 hours at 25° C. and 5% relative humidity, FIG. 4): positive shift of the peak oxidation potential was limited | shift of the peak potential of PQSA on addition of additive ([2]; imidazole 7.5 mM, PQSA 7.5 mM, FAD-GDH, pH 7.0, FIG. 4 vs FIG. 5): negative shift | Sensor stability % change in response current value between before and after 24 hours exposure at 30° C. and 80% humidity [3]: −50%
